Data published in US20260327211A1, “MODULATORS OF A POTASSIUM CHANNEL AND OF TRPV1 CHANNEL AND USES THEREOF” (Bsense Bio Therapeutics Ltd., priority 2023, published 2026).
Entries after “also recorded” stand apart in the source; their conditions may differ. One block for each compound: values may come before it.

Assays:
human sensory neurons = test: Human NPC-derived sensory neurons, spontaneous activity; assay type: cell-based; conditions: 5 μM
Method: Cell culture and differentiation: Human PSC-derived neural progenitor cells (Stem Cell Catalog No. 70901 and 70902) were cultured and expanded on Matrigel coated 6-wells plates, using neuronal progenitor medium containing: Neurobasal media supplemented by non-essential amino-acids, 1%; Glutamax, 1%; B27, 2%, FGF2, 20 ng/mL). hNPC were then plated onto PDL and Matrigel coated 12 mm coverglass at a density of about 50,000 cells/well of a 6 well, in DMEM/F12; 10% KSR; 1% P/S and A83-01 (2 μM) from days 0-5. From days 0-9 the medium contained also CHIR99021 (6 μM). From Day 3-9 the medium included RO4929097 (2 μM) and SU5402 (3 μM). […]
Electrophysiology: To characterize the neuronal properties with electrophysiology recordings, round small neurons (20-40 μm in diameter) were selected from day 31 and onwards. Cells were monitored for their polarized negative membrane potential and for their ability to evoke consistent spikes train responses to repeated positive current injections as a mark of achieving electrical maturation before testing the effect of the tested compounds on neuronal excitability. Membrane excitability was monitored using current clamp. […]
The inhibitory potency of the newly designed compounds as described herein was evaluated based on their ability to reduce the spontaneous neuronal activity.

hKv7.2/3 = biological target: T1, hKv7.2/3 (Homo sapiens, UniProt O43525+O43526); test: Kv7.2/7.3 whole-cell electrophysiology in CHO cells; assay type: cell-based; conditions: 100 nM, −40 mV, N=4, read-out: Kv7.2/3 current activation
T1 construct: host or cells: CHO
Excerpt: Extracellular (Bath) solution: The solution was composed of (in mM): NaCl, 140; KCl, 4; CaCl2, 1.8; MgCl2, 1.2; Glucose, 11; HEPES, 5.5. pH was adjusted to 7.3 with NaOH. Osmolarity was adjusted to 310 mOsm with Sucrose.
Intracellular (Pipette) solution: Pipettes were pulled from borosilicate glass (Warner Instrument Corp, USA) with a resistance of 3-7 MΩ and were filled with internal solution composed of (in mM): KCl, 130; MgCl2, 1; K ATP, 5; EGTA, 5 (replaced by BAPTA in rat DRG neurons recordings); HEPES, 10. pH was adjusted to 7.3 with KOH. Osmolarity was adjusted to 290 mOsm with Sucrose.
A programmable valve-linked pressurized perfusion system (AutoMate Scientific) was used for local application of compounds nearby the cell recorded in a consistent flow rate of 2-3 ml/min. Series resistance was corrected and data were sampled at 5 kHz and low pass filtered at 2.4 kHz using MultiClamp 700B amplifier with pCLAMP11 software (Molecular Devices, USA). […]
The current obtained at −40 mV membrane potential when test compound is injected is divided by the averaged current at −40 mV, recorded before test-compound application and following its washout, to evaluate the drug/control response.

hTRPV1 = biological target: T2, hTRPV1 (Homo sapiens, UniProt Q8NER1); test: hTRPV1 dual activity electrophysiology, CHO cells co-expressing hKv7.2/3 and hTRPV1; assay type: cell-based; conditions: 100 nM
T2 construct: CDS of NM_080704.4, inserted into the multiple cloning site of pcDNA3.1(+); host or cells: CHO/hKv7.2/3
T2 sequence (Q8NER1 whole entry): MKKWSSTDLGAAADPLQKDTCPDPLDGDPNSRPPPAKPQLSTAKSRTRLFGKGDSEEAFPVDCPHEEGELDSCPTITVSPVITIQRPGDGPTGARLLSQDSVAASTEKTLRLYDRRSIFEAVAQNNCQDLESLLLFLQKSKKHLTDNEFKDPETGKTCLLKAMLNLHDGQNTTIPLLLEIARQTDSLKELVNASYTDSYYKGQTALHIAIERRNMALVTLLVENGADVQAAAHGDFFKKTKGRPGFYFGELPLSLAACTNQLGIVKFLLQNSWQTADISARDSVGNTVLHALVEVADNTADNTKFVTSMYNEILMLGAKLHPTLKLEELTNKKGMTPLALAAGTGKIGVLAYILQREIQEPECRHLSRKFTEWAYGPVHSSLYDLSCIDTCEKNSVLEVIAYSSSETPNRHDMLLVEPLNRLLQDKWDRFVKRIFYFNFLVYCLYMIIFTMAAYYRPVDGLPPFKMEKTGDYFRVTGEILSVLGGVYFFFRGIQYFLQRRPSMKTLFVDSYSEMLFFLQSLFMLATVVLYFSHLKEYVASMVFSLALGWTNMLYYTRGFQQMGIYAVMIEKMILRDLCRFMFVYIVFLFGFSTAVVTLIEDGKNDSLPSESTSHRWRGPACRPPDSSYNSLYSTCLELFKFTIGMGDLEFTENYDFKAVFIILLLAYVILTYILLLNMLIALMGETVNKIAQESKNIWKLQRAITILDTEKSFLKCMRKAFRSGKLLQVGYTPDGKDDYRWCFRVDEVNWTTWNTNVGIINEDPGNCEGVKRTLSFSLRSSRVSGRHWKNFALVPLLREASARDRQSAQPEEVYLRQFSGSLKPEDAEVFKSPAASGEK

dopamine D2 = biological target: T3, dopamine D2 (Homo sapiens, UniProt P14416); test: Functional selectivity panel, dopamine D2; assay type: biochemical
T3 construct: Eurofins DiscoverX, USA
Method: (§1) A broad panel of 78 recombinant targets was tested for pharmacologic activity in vitro through a variety of functional assays (Eurofins DiscoverX, USA), as part of the National Institute of Neurological Disorders and Stroke (NINDS) Preclinical Screening Platform for Pain (PSPP) program. The biological targets for the in vitro profiling have been selected based on avoiding opioid receptor stimulation and targets known to be associated with adverse events or targeted by drugs of abuse. […] For each test, a reference compound was evaluated at the target of interest as a positive control.

5-HT1B = biological target: T4, 5-HT1B (Homo sapiens, UniProt P28222); test: Functional selectivity panel, 5-HT1B; assay type: biochemical
T4 construct: Eurofins DiscoverX, USA
T4 sequence (P28222 whole entry): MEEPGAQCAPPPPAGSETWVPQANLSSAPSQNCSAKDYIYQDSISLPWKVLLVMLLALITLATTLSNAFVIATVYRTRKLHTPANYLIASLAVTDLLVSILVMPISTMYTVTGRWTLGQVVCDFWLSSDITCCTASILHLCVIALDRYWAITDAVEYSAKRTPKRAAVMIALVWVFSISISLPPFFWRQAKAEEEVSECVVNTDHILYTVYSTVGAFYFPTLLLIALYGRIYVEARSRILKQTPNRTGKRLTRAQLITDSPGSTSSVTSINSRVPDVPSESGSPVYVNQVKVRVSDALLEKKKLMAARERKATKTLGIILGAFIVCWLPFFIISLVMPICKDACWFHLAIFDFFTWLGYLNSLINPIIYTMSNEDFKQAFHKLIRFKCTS
Method: as §1

DRG distribution in rat = assay type: in vivo; conditions: 8-hour post-dose
Cav1.2 = Cav1.2 (Homo sapiens, UniProt Q13936); test: Functional screening panel, Cav1.2; assay type: biochemical; conditions: read-out: IC/EC50 Cav1.2
Sequence of Cav1.2 (Q13936 whole entry): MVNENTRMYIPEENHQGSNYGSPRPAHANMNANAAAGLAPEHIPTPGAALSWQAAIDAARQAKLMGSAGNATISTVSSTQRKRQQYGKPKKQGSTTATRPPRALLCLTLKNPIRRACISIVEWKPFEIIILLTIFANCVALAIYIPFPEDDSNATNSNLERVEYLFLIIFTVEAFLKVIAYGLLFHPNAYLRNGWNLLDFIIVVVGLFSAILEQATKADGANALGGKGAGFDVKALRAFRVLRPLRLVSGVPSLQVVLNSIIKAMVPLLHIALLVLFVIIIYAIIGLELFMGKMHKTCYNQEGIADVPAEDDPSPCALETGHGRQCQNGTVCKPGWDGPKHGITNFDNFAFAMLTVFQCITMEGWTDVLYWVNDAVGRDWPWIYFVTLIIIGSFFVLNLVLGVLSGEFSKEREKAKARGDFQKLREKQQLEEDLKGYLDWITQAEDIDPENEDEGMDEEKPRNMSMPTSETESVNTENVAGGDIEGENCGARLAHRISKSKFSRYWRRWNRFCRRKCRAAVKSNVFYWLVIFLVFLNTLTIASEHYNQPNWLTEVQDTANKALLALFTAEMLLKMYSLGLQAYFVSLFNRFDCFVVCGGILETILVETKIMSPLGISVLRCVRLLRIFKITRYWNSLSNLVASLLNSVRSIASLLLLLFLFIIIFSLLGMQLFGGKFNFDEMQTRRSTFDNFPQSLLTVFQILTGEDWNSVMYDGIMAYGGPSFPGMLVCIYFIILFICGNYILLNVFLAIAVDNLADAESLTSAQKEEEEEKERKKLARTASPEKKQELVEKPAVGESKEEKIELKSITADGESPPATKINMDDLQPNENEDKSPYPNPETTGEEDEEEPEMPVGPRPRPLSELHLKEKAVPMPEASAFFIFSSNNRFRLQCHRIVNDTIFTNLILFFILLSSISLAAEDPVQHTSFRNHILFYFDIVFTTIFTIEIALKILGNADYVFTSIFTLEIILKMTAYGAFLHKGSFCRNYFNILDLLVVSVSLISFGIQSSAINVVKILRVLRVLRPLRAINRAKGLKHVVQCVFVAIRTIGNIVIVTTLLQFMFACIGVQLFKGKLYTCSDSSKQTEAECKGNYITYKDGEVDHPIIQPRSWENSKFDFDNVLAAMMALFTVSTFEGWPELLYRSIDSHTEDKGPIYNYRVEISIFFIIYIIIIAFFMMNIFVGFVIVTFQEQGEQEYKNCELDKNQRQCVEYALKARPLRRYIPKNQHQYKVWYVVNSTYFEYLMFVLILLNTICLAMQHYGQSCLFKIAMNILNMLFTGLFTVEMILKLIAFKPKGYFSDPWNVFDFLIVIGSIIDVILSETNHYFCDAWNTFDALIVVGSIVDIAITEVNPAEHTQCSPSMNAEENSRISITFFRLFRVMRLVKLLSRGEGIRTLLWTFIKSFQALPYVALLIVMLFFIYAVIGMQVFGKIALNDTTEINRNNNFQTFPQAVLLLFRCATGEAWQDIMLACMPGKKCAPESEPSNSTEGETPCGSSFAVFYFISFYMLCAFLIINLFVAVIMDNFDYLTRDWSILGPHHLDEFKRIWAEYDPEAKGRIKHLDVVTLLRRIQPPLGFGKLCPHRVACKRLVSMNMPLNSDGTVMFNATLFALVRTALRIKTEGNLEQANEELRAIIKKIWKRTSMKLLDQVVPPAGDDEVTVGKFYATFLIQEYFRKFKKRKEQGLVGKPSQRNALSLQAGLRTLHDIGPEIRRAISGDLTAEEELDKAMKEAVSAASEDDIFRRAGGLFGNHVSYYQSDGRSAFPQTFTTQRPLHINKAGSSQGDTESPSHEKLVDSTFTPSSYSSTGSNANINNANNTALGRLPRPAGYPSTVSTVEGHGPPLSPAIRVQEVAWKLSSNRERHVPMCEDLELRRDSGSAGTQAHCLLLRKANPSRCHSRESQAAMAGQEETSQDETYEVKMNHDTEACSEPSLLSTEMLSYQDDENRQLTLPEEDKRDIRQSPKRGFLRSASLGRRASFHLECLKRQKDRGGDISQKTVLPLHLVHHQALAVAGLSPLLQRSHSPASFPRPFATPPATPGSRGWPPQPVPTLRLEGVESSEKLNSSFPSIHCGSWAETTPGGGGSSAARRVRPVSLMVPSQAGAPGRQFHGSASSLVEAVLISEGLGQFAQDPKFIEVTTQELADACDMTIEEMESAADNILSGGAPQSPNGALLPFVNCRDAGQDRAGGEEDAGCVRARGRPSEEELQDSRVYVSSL
Sequence of Cav1.2 (P54289 25-944 partner limits assumed): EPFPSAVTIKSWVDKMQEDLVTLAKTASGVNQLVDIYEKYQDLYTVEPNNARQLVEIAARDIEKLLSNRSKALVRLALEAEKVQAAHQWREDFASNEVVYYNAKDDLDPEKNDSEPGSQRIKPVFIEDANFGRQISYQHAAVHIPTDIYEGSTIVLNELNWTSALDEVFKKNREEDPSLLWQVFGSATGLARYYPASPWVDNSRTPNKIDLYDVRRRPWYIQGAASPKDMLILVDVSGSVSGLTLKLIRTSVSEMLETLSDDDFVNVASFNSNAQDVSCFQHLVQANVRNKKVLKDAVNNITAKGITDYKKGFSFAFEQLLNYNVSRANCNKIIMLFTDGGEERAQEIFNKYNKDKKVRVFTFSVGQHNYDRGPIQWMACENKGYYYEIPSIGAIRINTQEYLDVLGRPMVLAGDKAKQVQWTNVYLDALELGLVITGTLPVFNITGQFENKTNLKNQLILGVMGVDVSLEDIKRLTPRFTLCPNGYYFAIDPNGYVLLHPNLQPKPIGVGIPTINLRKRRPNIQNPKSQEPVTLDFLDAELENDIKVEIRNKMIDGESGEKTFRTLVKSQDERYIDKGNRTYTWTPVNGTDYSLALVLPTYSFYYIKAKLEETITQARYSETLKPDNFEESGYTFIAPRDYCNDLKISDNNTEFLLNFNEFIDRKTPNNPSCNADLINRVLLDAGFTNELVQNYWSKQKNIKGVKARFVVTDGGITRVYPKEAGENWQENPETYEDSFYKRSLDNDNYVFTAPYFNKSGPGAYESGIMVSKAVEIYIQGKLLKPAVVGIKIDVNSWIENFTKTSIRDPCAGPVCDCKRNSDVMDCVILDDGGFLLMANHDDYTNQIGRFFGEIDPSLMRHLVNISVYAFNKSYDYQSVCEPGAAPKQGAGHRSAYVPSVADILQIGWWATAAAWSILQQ
Sequence of Cav1.2 (P54289 945-1103 partner limits assumed): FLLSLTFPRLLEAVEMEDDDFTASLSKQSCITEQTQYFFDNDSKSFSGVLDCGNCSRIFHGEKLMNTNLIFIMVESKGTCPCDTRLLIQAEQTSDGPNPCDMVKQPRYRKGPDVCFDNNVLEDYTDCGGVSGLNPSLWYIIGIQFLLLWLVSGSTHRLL
Method: as §1

NMDA = test: Functional selectivity panel, NMDA; assay type: biochemical; conditions: up to 10 micromolar
Method: as §1

COX-1/2 = test: Functional selectivity panel, COX-1/2; assay type: biochemical; conditions: up to 10 micromolar
Method: as §1

OATP2B1 = OATP2B1 (Homo sapiens, UniProt O94956); test: Transporter substrate, OATP2B1; assay type: in vitro ADME; conditions: role: substrate
Method: (§2) Additionally, compound 760 was tested for its capability to act as a transporter substrate for various transporters, and was not found to be a transporter substrate for any of the tested transporters.

OATP1B1 = OATP1B1 (Homo sapiens, UniProt Q9Y6L6); test: Transporter substrate, OATP1B1; assay type: in vitro ADME; conditions: role: substrate
Method: as §2

OAT3 = OAT3 (Homo sapiens, UniProt Q8TCC7); test: Transporter substrate, OAT3; assay type: in vitro ADME; conditions: role: substrate
Sequence of OAT3 (Q8TCC7 whole entry): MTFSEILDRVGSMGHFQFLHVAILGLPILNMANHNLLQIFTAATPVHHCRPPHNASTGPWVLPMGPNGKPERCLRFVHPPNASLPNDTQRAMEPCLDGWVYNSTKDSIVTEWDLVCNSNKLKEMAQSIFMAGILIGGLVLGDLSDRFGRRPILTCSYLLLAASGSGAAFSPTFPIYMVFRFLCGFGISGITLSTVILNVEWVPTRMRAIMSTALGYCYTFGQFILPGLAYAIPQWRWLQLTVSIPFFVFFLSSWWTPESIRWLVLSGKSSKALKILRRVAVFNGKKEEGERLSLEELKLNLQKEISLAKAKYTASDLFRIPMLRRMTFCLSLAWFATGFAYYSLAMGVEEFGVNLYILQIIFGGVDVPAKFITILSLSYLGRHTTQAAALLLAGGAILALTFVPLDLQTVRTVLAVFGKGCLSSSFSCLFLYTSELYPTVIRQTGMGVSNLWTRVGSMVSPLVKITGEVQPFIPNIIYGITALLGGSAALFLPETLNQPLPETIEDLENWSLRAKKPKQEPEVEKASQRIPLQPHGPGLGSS
Method: as §2

Compound: COC[C@@H](CO)NC(=O)Cc1cc(Sc2c(Cl)cc(F)cc2C(C)C)ccc1F [Compound 415]
- Spontaneous activity of human sensory neurons (human sensory neurons): significantly reduced

- activation at 0.1 µM (hKv7.2/3): 24.4 ± 10.4%
Compound: O=C(Cc1cc(-n2cc(Cl)c3cc(Cl)cc(Cl)c32)ccc1F)NCCO [Compound 627]
- hTRPV1 inhibition without hKv7.2/3 activation (hTRPV1): lack of hTRPV1 inhibition-potency gain; also recorded: TRPV1 could not be inhibited even at 100 nM

- IC50 (dopamine D2): 10 µM
- IC50 (5-HT1B): 10 µM
- Free exposure in DRG (DRG distribution in rat): 0.012 nM
Compound: O=C(Cc1cncc(-n2cc(Cl)c3cc(Cl)cc(Cl)c32)c1)N[C@@H]1COC[C@H]1O [Compound 661]

Compound: O=C(Cc1nccc(-n2cc(Cl)c3cc(Cl)cc(Cl)c32)n1)NC1COCC1O (stereo not drawn) [Compound 760]
- IC50 (Cav1.2): 2990 nM
- Effect on NMDA (NMDA): no effect
- Effect on COX-1/2 (COX-1/2): no effect
- OATP2B1 substrate (OATP2B1): not a transporter substrate
- OATP1B1 substrate (OATP1B1): not a transporter substrate
- OAT3 substrate (OAT3): not a transporter substrate
